Measured values as given in US11969506B2, “Lipid nanoparticle formulation” (ModernaTX, Inc., priority 2017, dated 2024).

Experiments:
HeLa cells [1] = assay: Luciferase activity in HeLa cells transfected with mRNA-lipoplexes in the presence of bioactive lipids (FIGS. 9A-9C, 9F); type: cell-based
Procedure: FIG. 9A is a graph illustrating luciferase activity in HeLa cells transfected with mRNA-lipoplexes at a dose of 50 ng mRNA in the presence of bioactive lipids (black) normalized to mRNA-lipoplex only control (red), which was set at 100%. Data represented as mean±SEM; n=3. […] FIG. 9B is a graph illustrating luciferase activity in HeLa cells transfected with mRNA-lipoplexes at a dose of 50 ng mRNA in the presence of varying concentrations of MK-571 (blue) relative to mRNA-lipoplex only control (red). Data represented as mean±SD; n=3. […] FIG. 9C is a graph illustrating luciferase activity in HeLa cells transfected with mRNA-lipoplexes at a dose of 50 ng mRNA in the presence of varying concentrations of Arachidonic Acid (blue) relative to mRNA-lipoplex only control (red). Data represented as mean±SD; n=3. […] FIG. 9F is a graph illustrating luciferase activity in HeLa cells transfected with mRNA-lipoplexes at a dose of 50 ng mRNA in the presence of varying concentrations of MK-571 or its analogues, Montelukast, Pranlukast, and Zafirlukast relative to mRNA-lipoplex only control. Data represented as mean±SD; n=3.

HeLa cells [2] = assay: Luciferase activity in HeLa cells transfected using LNPs with MK-571 (FIGS. 9D, 9E); type: cell-based; conditions: 24 hr pre-incubation with MK-571 (5 μM), increasing doses of mRNA
Procedure: FIG. 9D is a graph illustrating luciferase activity at increasing doses of mRNA in HeLa cells transfected using LNPs, with and without 24 hr pre-incubation with MK-571 (5 μM). Data represented as mean±SD; n=3.
FIG. 9E is a graph illustrating luciferase activity at increasing doses of mRNA in HeLa cells transfected using LNPs and MK-571 loaded LNPs. Data represented as mean±SD; n=3.

| SMILES | luciferase activity (protein expression) relative to mRNA-lipoplex only control (HeLa cells [1]; 50 ng mRNA, varying concentrations) | protein expression relative to mRNA-lipoplex only control (HeLa cells [1]; 50 ng mRNA, concentration of 5 μM) | enhancement of protein expression over the control (HeLa cells [1]; mRNA-lipoplexes 50 ng mRNA, lipoplex only control set at 100%) | transfection (luciferase activity) using LNPs (HeLa cells [2]) |
| --- | --- | --- | --- | --- |
| CCCCC/C=C\C/C=C\C/C=C\C/C=C\CCCC(=O)O [Arachidonic Acid] | failed to elicit improvement in protein expression |  |  |  |
| CN(C)C(=O)CCSC(SCCC(=O)O)c1cccc(/C=C/c2ccc3ccc(Cl)cc3n2)c1 (stereo not shown) [MK-571] |  | doubling the protein expression | approximately 40% | able to enhance transfection at all doses of mRNA |
